From patent US9771559B2, “Methods and compositions for stem cell self-renewal” (Stowers Institute for Medical Research, priority 2007, dated 2017)
Like-named read-outs stand apart in the source and are kept apart here.

Tests used:
[1] = tested on: LSK Flk2^− cells; experiment: Ex vivo culture and expansion of sorted LSK Flk2- cells in media with PTEN and/or GSK-3β inhibitors; format: cell-based, wild-type (C57Bl/6) mice; conditions: 1 μM CHIR99021, 200 nM BpV(pic); for expansion of LSK cells compared to control: 100 LSK Flk2- cells seeded, 17 and 23 days culture; for Fold expansion of LSK Flk2- cells after 28 days culture: compared to media without inhibitor
Method: LSK or LSK Flk2^− cells were sorted into 96-well U-bottom tissue culture plates at 100 cells/well with 200 μl media/well. Cells were incubated at 37° C., 5% O2, 5% CO2 (balance N2) for the indicated number of days. One-half total volume of media (see Table 1, below for the base media) was carefully pipetted from the top and replaced with fresh media every other day.
One hundred LSK Flk2^− cells were sorted from wild-type (C57Bl/6) mice and cultured in (1) media, (2) media+1 μM CHIR99021 (a GSK-3(3β inhibitor, a gift from Dr. Sheng Ding), (3) media+200 nM Dipotassium Bis-peroxo(picolinato)oxovanadate (BpV(pic), a PTEN inhibitor, available from Calbiochem, Cat. No. 203705), (4) media+1 μM CHIR99021+200 nM BpV(pic), (5) media+200 nM Shikonin (also a PTEN inhibitor, available from Calbiochem, Cat. No. 565850), and (6) media+200 nM Shikonin+1 μM CHIR99021. (FIGS. 3B-C). Cells were cultured as described above. Cells were examined at 17 days of culture (FIG. 3B, original magnification 100×) and 23 days (FIG. 3C, original magnification 40×).
LSK Flk2^− cells at 28 days culture in the indicated media conditions were examined (FIG. 3D, original magnification 200×).
Fold expansion of LSK Flk2^− cells after 28 days culture in (1) media, (2) media+BpV(pic), (3) media+CHIR99021, and (4) media+CHIR99021+BpV(pic) were analyzed.
One hundred LSK Flk2^− cells are sorted from wild-type (C57Bl/6) mice and are cultured in (1) media, (2) media+an GSK-3β antibody, (3) media+an anti-PTEN antibody, and (4) media+anti-GSK-3β and anti-PTEN antibodies. Cells are cultured as described above. Cells are examined at 9 days, 17 days and 23 days of culture.
One hundred LSK Flk2^− cells are sorted from wild-type (C57Bl/6) mice and are cultured in (1) media, (2) media+GSK-3β siRNA, (3) media+PTEN siRNA, and (4) media+GSK-3β siRNA and PTEN siRNA. Cells are cultured as described above. Cells are examined at 9 days, 17 days and 23 days of culture.

[2] = tested on: lethally irradiated (10Gy) CD45.1^+ recipient mice; experiment: Transplantation of cultured LSK Flk2- cells into lethally irradiated recipients; donor repopulation in peripheral blood; format: in vivo; conditions: 28-day cultures; 1000 re-sorted LSK Flk2- cells (CD45.2+) + 2×10^5 competitor cells per mouse; peripheral blood at 4 weeks post-transplant
Source text: Cells were harvested from the wells prior to transplantation by pipetting up and down several times before transferring to a fresh tube. Residual was then collected by adding more media and repeating. Cells were washed in DMEM (Invitrogen, Cat. No. 31053) without phenol red and added to the appropriate number of whole bone marrow rescue cells from a congenic donor (for 200,000 rescue cells+1,000 re-sorted LSK Flk2^− cells (FIG. 3F-H) or the non-adherent product of 10 days culture of 100 LSK Flk2^− cultured cells (FIG. 3I-K) per mouse as indicated). Cells were injected into lethally irradiated (10 Grays, single dose) Ptprc (CD45.1^+) recipient mice through the tail vein using an insulin syringe.
Repopulation was measured at 4 weeks post-transplant by collection of peripheral blood, red blood cell lysis, and staining of CD45.1 (recipient) compared to CD45.2 (donor) engraftment using antibodies purchased from eBiosciences (FITC conjugated CD45.2 (Cat. No. 11-0454-85) and PE-Cy5 conjugated CD45.1 (Cat. No. 15-0453-82)). Mice transplanted with rescue/competitor cells only were used as a control to determine the limits of repopulation detection. Multi-lineage reconstitution was determined by CD3, B220 (for lymphoid) and Gr1, Mac-1 (for myeloid), as described above.
Cells cultured for 28 days in (1) media, (2) media+BpV(pic), (3) media+CHIR99021 and (4) media+CHIR99021 (1 μM)+BpV(pic) (200 nM) were re-sorted for LSK Flk2^− cells. One thousand LSK Flk2^− cells (CD45.2^+) from each media condition were transplanted into lethally irradiated (10Gy) CD45.1^+ recipient mice along with 2×10^5 congenic whole bone marrow competitor cells. At 4 weeks post-transplant, peripheral blood was analyzed for donor (FIG. 3G) and multi-lineage (FIG. 3H) engraftment. […] The horizontal-dashed line represents the average ‘engraftment’ of mice transplanted with competitor cells only and, thus, the limit of detectability for true engraftment.

[3] = tested on: lethally irradiated (10Gy) CD45.1^+ recipient mice; experiment: Observation of transplant recipients for leukogenesis and health; conditions: recipients of LSK Flk2- cells cultured with inhibitor(s); up to 16 weeks post-transplantation
[4] = tested on: lethally irradiated (10Gy) CD45.1^+ recipient mice; conditions: mouse, in vivo

Molecule: Cc1c[nH]c(-c2cnc(NCCNc3ccc(C#N)cn3)nc2-c2ccc(Cl)cc2Cl)n1 [CHIR99021]
- expansion of LSK cells compared to control [1]: greater expansion
- Fold expansion of LSK Flk2- cells after 28 days culture [1]: significant expansion
- mice showing >1% engraftment [2]: 4/8
- mice showing any sign of leukogenesis [3]: no mice

Molecule: Dipotassium Bis-peroxo(picolinato)oxovanadate [BpV(pic)]
- expansion of LSK cells compared to control [1]: greater expansion
- Fold expansion of LSK Flk2- cells after 28 days culture [1]: significant expansion
- mice showing >1% engraftment [2]: 0/10
- mice showing any sign of leukogenesis [4]: no mice
